We go through 18 molecules from paper PMC8881077 (Journal of Enzyme Inhibition and Medicinal Chemistry, 2022).

One assay concerns the target T1, ratAChE (Rattus norvegicus, UniProt P37136).
T1 construct: AChE from 5% rat cortex homogenate or human erythrocytes (Sigma Co.); from tissue; host or cells: 5% rat cortex homogenate
T1 sequence (P37136 32-614): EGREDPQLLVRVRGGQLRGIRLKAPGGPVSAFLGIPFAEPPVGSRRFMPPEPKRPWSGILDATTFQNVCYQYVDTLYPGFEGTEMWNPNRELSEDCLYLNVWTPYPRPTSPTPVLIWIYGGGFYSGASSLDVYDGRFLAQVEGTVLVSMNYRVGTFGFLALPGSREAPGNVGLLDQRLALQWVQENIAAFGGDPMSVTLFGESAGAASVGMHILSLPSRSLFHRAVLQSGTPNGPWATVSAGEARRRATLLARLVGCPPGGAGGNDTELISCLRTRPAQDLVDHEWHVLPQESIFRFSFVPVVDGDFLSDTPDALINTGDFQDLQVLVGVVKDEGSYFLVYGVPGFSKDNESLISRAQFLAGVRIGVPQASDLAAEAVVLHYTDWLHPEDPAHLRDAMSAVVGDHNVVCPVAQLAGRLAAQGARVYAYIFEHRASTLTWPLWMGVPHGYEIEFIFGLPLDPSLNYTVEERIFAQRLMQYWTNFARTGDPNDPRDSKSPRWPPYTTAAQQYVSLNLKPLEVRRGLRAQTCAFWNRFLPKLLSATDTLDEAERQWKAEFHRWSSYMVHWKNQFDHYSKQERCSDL
The experiment in a line: biochemical. To be noted: for SI: Selectivity Index = IC50 (BuChE)/IC50 (AChE), rat enzymes; for IC50: from 5% rat cortex homogenate, read-out: IC50 ± SD ratAChE.

For assay [1] the following is noted: Trolox as standard.
Experimental: The skeleton compounds naringenin and apigenin were also evaluated for comparison purposes, and vitamin E analogue Trolox was used as a standard.
The antioxidant potency of target compounds was tested using an oxygen radical absorbance capacity fluorescein (ORAC-FL) assay.
Another assay concerns the target T2, ratBuChE (Rattus norvegicus, UniProt Q9JKC1).
T2 construct: BuChE from rat serum or human serum (Sigma Co.); from tissue; host or cells: rat serum
Nature of the assay: ratBuChE inhibition, modified Ellman's method. In kind it is biochemical. On the technique in general: Ellman's reagent forms a yellow product with free thiols.

One may read the IC50 as the concentration that inhibits the measured activity by half.

T2 sequence (Q9JKC1 24-597): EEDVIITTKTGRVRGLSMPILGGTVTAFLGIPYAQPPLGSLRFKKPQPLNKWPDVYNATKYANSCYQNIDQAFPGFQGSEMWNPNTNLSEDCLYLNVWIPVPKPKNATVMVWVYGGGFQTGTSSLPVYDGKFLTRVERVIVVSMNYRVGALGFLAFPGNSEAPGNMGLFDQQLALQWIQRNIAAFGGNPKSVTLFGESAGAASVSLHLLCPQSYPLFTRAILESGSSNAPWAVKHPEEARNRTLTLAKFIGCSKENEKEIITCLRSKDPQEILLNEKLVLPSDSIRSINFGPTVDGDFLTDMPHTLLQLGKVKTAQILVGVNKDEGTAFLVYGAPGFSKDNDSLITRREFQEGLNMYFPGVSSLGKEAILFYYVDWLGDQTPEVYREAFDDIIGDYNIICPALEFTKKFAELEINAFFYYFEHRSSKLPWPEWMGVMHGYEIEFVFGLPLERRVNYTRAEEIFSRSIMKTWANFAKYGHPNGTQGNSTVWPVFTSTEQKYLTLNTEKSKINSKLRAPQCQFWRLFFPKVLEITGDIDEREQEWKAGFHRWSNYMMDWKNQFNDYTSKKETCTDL
Experimental for ratAChE: (§1) The AChE and BuChE inhibitory activities of the synthesised compounds were evaluated using the Ellman assay with slight modification. AChE from 5% rat cortex homogenate or human erythrocytes (Sigma Co.). BuChE from rat serum or human serum (Sigma Co.).
Experimental for ratBuChE: as §1

Take `O=c1cc(-c2ccc(OCCCN3CCC(c4ccccc4)CC3)cc2)oc2cc(OCCCN3CCC(c4ccccc4)CC3)cc(O)c12` [Compound 10d, 5-hydroxy-7–(3-(4-phenylpiperidin-1-yl)propoxy)-2–(4-(3–(4-phenylpiperidin-1-yl)propoxy)phenyl)-4H-chromen-4-one]: at ratAChE, the SI turned out to be 2.4 and the IC50 stood at 6.4 ± 0.22 µM. For the same molecule, the ORAC in assay [1] was 1.1 ± 0.02 μM of Trolox equivalent/μM of tested compound. Besides, the midpoint of inhibition against ratBuChE, the IC50, lay at 15.1 ± 0.49 µM.

As for `O=C1CC(c2ccc(OCCCN3CCC(Cc4ccccc4)CC3)cc2)Oc2cc(OCCCN3CCC(Cc4ccccc4)CC3)cc(O)c21` (stereo not drawn) [Compound 7c, 7–(3-(4-benzylpiperidin-1-yl)propoxy)-2–(4-(3–(4-benzylpiperidin-1-yl)propoxy)phenyl)-5-hydroxychroman-4-one], at ratAChE, the SI was found to be 2.9 and the IC50 came out at 6.7 ± 0.16 µM. Besides, in assay [1], the ORAC is on record as 1.2 ± 0.02 μM of Trolox equivalent/μM of tested compound. On ratBuChE, this molecule returned an IC50 of 19.4 ± 0.28 µM.

On to `CCN1CCN(CCCOc2ccc(C3CC(=O)c4c(O)cc(OCCCN5CCN(CC)CC5)cc4O3)cc2)CC1` (stereo not drawn) [Compound 7e, 7–(3-(4-ethylpiperazin-1-yl)propoxy)-2–(4-(3–(4-ethylpiperazin-1-yl)propoxy)phenyl)-5-hydroxychroman-4-one], for which, at ratAChE, the SI came to 1.9 and the IC50 worked out at 8.2 ± 0.47 µM. In assay [1], the ORAC is listed as 1.5 ± 0.02 μM of Trolox equivalent/μM of tested compound. In addition, the IC50 against ratBuChE stood at 15.8 ± 0.62 µM.

`CCN(CCCCOc1ccc(C2CC(=O)c3c(O)cc(OCCCCN(CC)Cc4ccccc4OC)cc3O2)cc1)Cc1ccccc1OC` (stereo not drawn) [Compound 7h, 7–(4-(ethyl(2-methoxybenzyl)amino)butoxy)-2–(4-(4-(ethyl(2-methoxybenzyl)amino)butoxy)phenyl)-5-hydroxychroman-4-one]: at ratAChE, the SI is 19.7 and the IC50 came to 0.86 ± 0.05 µM. For the same molecule, in assay [1], the ORAC was 1.0 ± 0.04 μM of Trolox equivalent/μM of tested compound. Also, the half-inhibitory concentration (IC50) against ratBuChE came out at 16.9 ± 0.34 µM.

`O=c1cc(-c2ccc(OCCCN3CCC(CCCc4ccccc4)CC3)cc2)oc2cc(OCCCN3CCC(CCCc4ccccc4)CC3)cc(O)c12` [Compound 10e, 5-hydroxy-7–(3-(4–(3-phenylpropyl)piperidin-1-yl)propoxy)-2–(4-(3–(4–(3-phenylpropyl)piperidin-1-yl)propoxy)phenyl)-4H-chromen-4-one]: the IC50 at ratAChE amounted to 7.9 ± 0.26 µM; against ratBuChE it was 13.8 ± 0.43 µM. Also, the ORAC in assay [1] is 1.1 ± 0.02 μM of Trolox equivalent/μM of tested compound.

For the molecule `CCN(CCCCCCCCCCOc1cc(O)c2c(c1)OC(c1ccc(O)cc1)CC2=O)Cc1ccccc1` (stereo not drawn) [Compound 5i, 7-((10-(benzyl(ethyl)amino)decyl)oxy)-5-hydroxy-2–(4-hydroxyphenyl)chroman-4-one], at ratAChE, the SI is reported as 3.0 and the IC50 worked out at 4.9 ± 0.16 µM. The ORAC in assay [1] was 2.1 ± 0.04 μM of Trolox equivalent/μM of tested compound. At ratBuChE, inhibition was half-maximal at 14.7 ± 0.62 µM (IC50).

With `O=c1cc(-c2ccc(OCCCCCCN3CCc4ccccc4C3)cc2)oc2cc(OCCCCCCN3CCc4ccccc4C3)cc(O)c12` [Compound 10q, 7-((6–(3,4-dihydroisoquinolin-2(1H)-yl)hexyl)oxy)-2–(4-((6–(3,4-dihydroisoquinolin-2(1H)-yl)hexyl)oxy)phenyl)-5-hydroxy-4H-chromen-4-one], on ratAChE, the SI was 2.9 and the IC50 came to 4.2 ± 0.15 µM. Also, the ORAC in assay [1] is recorded as 1.0 ± 0.02 μM of Trolox equivalent/μM of tested compound. Moreover, at ratBuChE, the midpoint of inhibition, the IC50, lay at 12.2 ± 0.28 µM.

For `O=c1cc(-c2ccc(OCCCCN3CCc4ccccc4C3)cc2)oc2cc(OCCCCN3CCc4ccccc4C3)cc(O)c12` [Compound 10g, 7–(4-(3,4-dihydroisoquinolin-2(1H)-yl)butoxy)-2–(4-(4–(3,4-dihydroisoquinolin-2(1H)-yl)butoxy)phenyl)-5-hydroxy-4H-chromen-4-one], on ratAChE, the SI stood at 3.8 and the IC50 turned out to be 4.6 ± 0.21 µM. Further, the ORAC in assay [1] is recorded as 1.2 ± 0.03 μM of Trolox equivalent/μM of tested compound. Besides, on ratBuChE, the IC50 amounted to 17.4 ± 0.35 µM.

With `O=c1cc(-c2ccc(OCCCCN3CCN(Cc4ccccc4)CC3)cc2)oc2cc(OCCCCN3CCN(Cc4ccccc4)CC3)cc(O)c12` [Compound 10i, 7–(4-(4-Benzylpiperazin-1-yl)butoxy)-2–(4–(4-(4-benzylpiperazin-1-yl)butoxy)phenyl)-5-hydroxy-4H-chromen-4-one], the values for the IC50 on ratAChE and against ratBuChE were 6.9 ± 0.14 µM and 10.3 ± 0.19 µM, respectively. For the same molecule, the ORAC in assay [1] is reported as 1.5 ± 0.02 μM of Trolox equivalent/μM of tested compound.

Consider `O=C1CC(c2ccc(O)cc2)Oc2cc(OCCCCCN3CCC(Cc4ccccc4)CC3)cc(O)c21` (stereo not drawn) [Compound 5g, 7-((5–(4-benzylpiperidin-1-yl)pentyl)oxy)-5-hydroxy-2–(4-hydroxyphenyl)chroman-4-one], for which the SI on ratAChE turned out to be 7.5. For the same molecule, the IC50 on ratAChE turned out to be 2.5 ± 0.33 µM; against ratBuChE it was 18.7 ± 0.33 µM. Also, the ORAC in assay [1] was 2.1 ± 0.02 μM of Trolox equivalent/μM of tested compound.

Turning to `CCN(CCCCCCOc1cc(O)c2c(c1)OC(c1ccc(O)cc1)CC2=O)Cc1ccccc1` (stereo not drawn) [Compound 5h, 7-((6-(benzyl(ethyl)amino)hexyl)oxy)-5-hydroxy-2–(4-hydroxyphenyl)chroman-4-one], on ratAChE, the SI worked out at 4.7 and the IC50 worked out at 3.3 ± 0.09 µM. In addition, the ORAC in assay [1] is 2.3 ± 0.03 μM of Trolox equivalent/μM of tested compound. In addition, at ratBuChE, the IC50 came out at 15.5 ± 0.52 µM.

For `CCN(CCCCCCCCCCCCOc1cc(O)c2c(c1)OC(c1ccc(O)cc1)CC2=O)Cc1ccccc1` (stereo not drawn) [Compound 5j, 7-((12-(benzyl(ethyl)amino)dodecyl)oxy)-5-hydroxy-2–(4-hydroxyphenyl)chroman-4-one], the values for the IC50 on ratAChE and at ratBuChE were 6.5 ± 0.09 µM and 15.9 ± 0.37 µM, respectively. For the same molecule, the ORAC in assay [1] is 2.2 ± 0.05 μM of Trolox equivalent/μM of tested compound.

As to `O=C1CC(c2ccc(OCCCN3CCC(c4ccccc4)CC3)cc2)Oc2cc(OCCCN3CCC(c4ccccc4)CC3)cc(O)c21` (stereo not drawn) [Compound 7d, 5-hydroxy-7–(3-(4-phenylpiperidin-1-yl)propoxy)-2–(4-(3–(4-phenylpiperidin-1-yl)propoxy)phenyl)chroman-4-one], at ratAChE, the SI was determined as 2.2 and the IC50 was found to be 9.3 ± 0.37 µM. The ORAC in assay [1] was 1.0 ± 0.03 μM of Trolox equivalent/μM of tested compound. The molecule also showed an IC50 on ratBuChE of 20.3 ± 0.26 µM.

Turning to `CCN(CCCOc1ccc(C2CC(=O)c3c(O)cc(OCCCN(CC)Cc4ccccc4)cc3O2)cc1)Cc1ccccc1` (stereo not drawn) [Compound 7b, 7–(3-(benzyl(ethyl)amino)propoxy)-2–(4-(3-(benzyl(ethyl)amino)propoxy)phenyl)-5-hydroxychroman-4-one], on ratAChE, the SI came to 2.5 and the IC50 was found to be 7.4 ± 0.29 µM. For the same molecule, in assay [1], the ORAC was 1.2 ± 0.04 μM of Trolox equivalent/μM of tested compound. The molecule further yielded an IC50 against ratBuChE of 18.7 ± 0.37 µM.

Turning to `O=C1CC(c2ccc(OCCCCN3CCN(Cc4ccccc4)CC3)cc2)Oc2cc(OCCCCN3CCN(Cc4ccccc4)CC3)cc(O)c21` (stereo not drawn) [Compound 7i, 7–(4-(4-benzylpiperazin-1-yl)butoxy)-2–(4–(4-(4-benzylpiperazin-1-yl)butoxy)phenyl)-5-hydroxychroman-4-one], on ratAChE, the SI was 2.0 and the IC50 is 6.1 ± 0.21 µM. In addition, the ORAC in assay [1] is listed as 1.4 ± 0.03 μM of Trolox equivalent/μM of tested compound. On ratBuChE, this molecule had an IC50 of 12.3 ± 0.16 µM.

For `O=c1cc(-c2ccc(OCCCCCN3CCC(c4ccccc4)CC3)cc2)oc2cc(OCCCCCN3CCC(c4ccccc4)CC3)cc(O)c12` [Compound 10n, 5-hydroxy-7-((5–(4-phenylpiperidin-1-yl)pentyl)oxy)-2–(4-((5–(4-phenylpiperidin-1-yl)pentyl)oxy)phenyl)-4H-chromen-4-one], on ratAChE, the SI was determined as 4.9 and the 50% inhibitory concentration (IC50) came out at 3.6 ± 0.11 µM. The ORAC in assay [1] is given as 1.1 ± 0.04 μM of Trolox equivalent/μM of tested compound. This molecule also displayed an IC50 against ratBuChE of 17.9 ± 0.46 µM.

On to `CCN(CCCCOc1ccc(C2CC(=O)c3c(O)cc(OCCCCN(CC)Cc4ccccc4)cc3O2)cc1)Cc1ccccc1` (stereo not drawn) [Compound 7g], for which the SI on ratAChE worked out at 11.2. In addition, the IC50 stood at 1.4 ± 0.08 µM on ratAChE and 15.7 ± 0.29 µM against ratBuChE. For the same molecule, the ORAC in assay [1] is recorded as 1.2 ± 0.04 μM of Trolox equivalent/μM of tested compound.

`O=c1cc(-c2ccc(OCCCCCCN3CCC(Cc4ccccc4)CC3)cc2)oc2cc(OCCCCCCN3CCC(Cc4ccccc4)CC3)cc(O)c12` [Compound 10s, 7-((6–(4-benzylpiperidin-1-yl)hexyl)oxy)-2–(4-((6–(4-benzylpiperidin-1-yl)hexyl)oxy)phenyl)-5-hydroxy-4H-chromen-4-one] showed an SI on ratAChE of 6.5. Besides, the half-inhibitory concentration (IC50) at ratAChE came out at 2.6 ± 0.33 µM; against ratBuChE, 16.9 ± 0.54 µM. For the same molecule, the ORAC in assay [1] is 1.1 ± 0.03 μM of Trolox equivalent/μM of tested compound.
